31 molecules from ChEMBL document CHEMBL4340502, “Anti-biofilm and anti-adherence properties of novel cyclic dipeptides against oral pathogens” (Bioorg Med Chem, 2019) can be followed below.

Activity calls are given as the source filed them.

The test system of data set [1] is Listeria monocytogenes. Nature of the data set: Growth inhibition of Listeria monocytogenes WSLC 1001 incubated for 24 hrs under aerobic condition by microdilution method. The conditions noted are these: in vitro. The format is organism-based. Background: Broth dilution looks for growth in wells or tubes with falling amounts of substance.
Data set [2] relates to Streptococcus mutans. Nature of the data set: Inhibition of planktonic growth of Streptococcus mutans ATCC 25175 up to 96 ug/mL after 24 hrs relative to control. The format is organism-based.
Data set [3] deals with Staphylococcus aureus. Nature of the data set: Growth inhibition of Staphylococcus aureus ATCC 6538 incubated for 24 hrs under aerobic condition by microdilution method. The format is organism-based. The conditions noted are these: in vitro.
Data set [4] has as its system Limosilactobacillus fermentum. Briefly: Antibiofilm activity against Lactobacillus fermentum LacB1 assessed as inhibition of biofilm formation up to 96 ug/mL after 24 hrs by crystal violet staining based assay. The format is functional, organism-based.
For data set [5], the system named is Escherichia coli. Briefly: Growth inhibition of Escherichia coli ATCC 15939 incubated for 24 hrs under aerobic condition by microdilution method. The format is organism-based.
Data set [6] deals with Pseudomonas aeruginosa. Briefly: Growth inhibition of Pseudomonas aeruginosa ATCC 10145 incubated for 24 hrs under aerobic condition by microdilution method. The format is organism-based.
Data set [7] concerns Porphyromonas gingivalis. Briefly: Antibiofilm activity against Porphyromonas gingivalis ATCC 33277 assessed as inhibition of biofilm formation up to 96 ug/mL after 24 hrs by crystal violet staining based assay. The format is functional, organism-based.
In data set [8] the test system is Fusobacterium nucleatum. Nature of the data set: Antibiofilm activity against Fusobacterium nucleatum ATCC 25586 assessed as inhibition of biofilm formation up to 96 ug/mL after 24 hrs by crystal violet staining based assay. Type of data set: functional, organism-based.
In data set [9] the test system is Streptococcus mutans. Briefly: Antibiofilm activity against Streptococcus mutans ATCC 25175 assessed as inhibition of biofilm formation up to 96 ug/mL after 24 hrs by crystal violet staining-based assay. Type of data set: functional, organism-based.

As to `O=C1N[C@@H](Cc2ccccc2)C(=O)N[C@H]1Cc1ccccc1`, the MIC in data set [1], in data set [3], in [5] and in data set [6] was more than 192 µg/mL throughout. For the same molecule, the “growth inhibition (GI)” value in data set [2] was “Non-Toxic”. The inhibition entry in data set [4], in [7], in data set [8] and in data set [9] was “inactive” each time.
With `CC(C)C[C@@H]1NC(=O)[C@H](Cc2ccc(OCc3ccccc3)cc2)NC1=O`, the “growth inhibition (GI)” value in [2] is “Non-Toxic”. Also, the inhibition entry in data set [7], in data set [8] and in data set [9] was “inactive” throughout.
`CC(C)C[C@@H]1NC(=O)CNC1=O`: in data set [2], the “growth inhibition (GI)” value is “Non-Toxic”. Besides, the inhibition result in data set [7], in data set [8] and in data set [9] was “inactive” each time.
Regarding `O=C1N[C@H](Cc2ccccc2)C(=O)N[C@H]1COCc1ccccc1`, the “growth inhibition (GI)” value in data set [2] is given as “Non-Toxic”. In addition, the inhibition result in [7], in data set [8] and in data set [9] was “inactive” in each case.
Regarding `CC(C)C[C@H]1NC(=O)[C@@H](C(C)C)NC1=O`, in data set [2], the “growth inhibition (GI)” value is “Non-Toxic”. Also, the inhibition entry in data set [7], in data set [8] and in data set [9] was “inactive” in each case.
For the molecule `C[C@H]1NC(=O)[C@@H](C)NC1=O`, the “growth inhibition (GI)” value in data set [2] is “Non-Toxic”. For the same molecule, the inhibition result in [7], in [8] and in data set [9] was “inactive” throughout.
In the case of `O=C1N[C@H](Cc2ccccc2)C(=O)N[C@@H]1Cc1ccccc1`, the MIC in data set [1], in data set [3], in [5] and in [6] was more than 192 µg/mL each time. Moreover, the “growth inhibition (GI)” value in [2] was “Non-Toxic”. The inhibition result in [4], in data set [7], in data set [8] and in [9] was “inactive” each time.
For `C[C@@H](OCc1ccccc1)[C@@H]1NC(=O)[C@H]([C@@H](C)OCc2ccccc2)NC1=O`, the “growth inhibition (GI)” value in data set [2] is “Non-Toxic”. Besides, the inhibition entry in [7], in data set [8] and in data set [9] was “inactive” each time.
Consider `O=C1[C@H]2CCCN2C(=O)[C@H]2CCCN12`, for which, in data set [2], the “growth inhibition (GI)” value is “Non-Toxic”. For the same molecule, the inhibition result in data set [7], in data set [8] and in [9] was “inactive” in each case.
For `CC(C)C[C@@H]1NC(=O)[C@H](Cc2ccc([N+](=O)[O-])cc2)NC1=O`, the “growth inhibition (GI)” value in data set [2] is recorded as “Non-Toxic”. For the same molecule, the inhibition result in data set [7], in data set [8] and in data set [9] was “inactive” each time.
Take `CC(C)C[C@@H]1NC(=O)[C@@H](CC(C)C)NC1=O`: the “growth inhibition (GI)” value in data set [2] is given as “Non-Toxic”. Further, the inhibition result in [7], in [8] and in data set [9] was “inactive” in each case.
As for `O=C1N[C@H](Cc2ccccc2)C(=O)N[C@H]1Cc1ccccc1`, the MIC in [1], in data set [3], in data set [5] and in data set [6] was more than 192 µg/mL throughout. Moreover, the “growth inhibition (GI)” value in data set [2] was “Non-Toxic”. The inhibition result in [4], in data set [7], in data set [8] and in data set [9] was “inactive” throughout.
Regarding `CC(C)C[C@@H]1NC(=O)[C@H](C)NC1=O`, in [2], the “growth inhibition (GI)” value is “Non-Toxic”. In addition, the inhibition entry in data set [7], in data set [8] and in [9] was “inactive” each time.
Consider `O=C1N[C@H](COCc2ccccc2)C(=O)N[C@H]1COCc1ccccc1`, for which the “growth inhibition (GI)” value in data set [2] is on record as “Non-Toxic”. For the same molecule, the inhibition entry in data set [7], in data set [8] and in data set [9] was “inactive” in each case.
As for `CC(C)C[C@H]1NC(=O)[C@H](C(C)C)NC1=O`, the “growth inhibition (GI)” value in data set [2] was “Non-Toxic”. Besides, the inhibition result in data set [7], in data set [8] and in [9] was “inactive” throughout.
In the case of `CC(C)C[C@@H]1NC(=O)[C@@H](Cc2ccc(OCc3ccccc3)cc2)NC1=O`, in data set [2], the “growth inhibition (GI)” value is reported as “Non-Toxic”. For the same molecule, the inhibition entry in data set [7], in data set [8] and in data set [9] was “inactive” in each case.
For `CC(C)[C@@H]1NC(=O)[C@H](Cc2ccc(OCc3ccccc3)cc2)NC1=O`, the “growth inhibition (GI)” value in data set [2] is “Non-Toxic”. Besides, the inhibition entry in data set [7], in [8] and in [9] was “inactive” in each case.
Consider `O=C1N[C@@H](Cc2ccc(OCc3ccccc3)cc2)C(=O)N2CCC[C@@H]12`, for which, in data set [2], the “growth inhibition (GI)” value is given as “Non-Toxic”. Besides, the inhibition result in [7], in [8] and in data set [9] was “inactive” throughout.
Consider `CCC(C)[C@@H]1NC(=O)[C@H](Cc2ccccc2)NC1=O` (some centres undefined), for which the “growth inhibition (GI)” value in data set [2] is on record as “Non-Toxic”. The inhibition entry in data set [7], in data set [8] and in data set [9] was “inactive” throughout.
For the molecule `CC(C)C[C@@H]1NC(=O)[C@H](C(C)C)NC1=O`, in data set [2], the “growth inhibition (GI)” value is on record as “Non-Toxic”. Moreover, the inhibition result in [7], in data set [8] and in [9] was “inactive” each time.
With `C[C@H]1NC(=O)[C@@H](Cc2ccc(OCc3ccccc3)cc2)NC1=O`, in [2], the “growth inhibition (GI)” value is on record as “Non-Toxic”. For the same molecule, the inhibition entry in [7], in data set [8] and in [9] was “inactive” throughout.
As for `CCC(C)[C@@H]1NC(=O)[C@H](C(C)CC)NC1=O` (some centres undefined), the “growth inhibition (GI)” value in data set [2] is “Non-Toxic”. In addition, the inhibition entry in [7], in data set [8] and in [9] was “inactive” throughout.
As to `O=C1CNC(=O)[C@H](Cc2ccccc2)N1`, the “growth inhibition (GI)” value in data set [2] is reported as “Non-Toxic”. For the same molecule, the inhibition entry in [7], in data set [8] and in [9] was “inactive” in each case.
`CC(C)C[C@@H]1NC(=O)[C@H](CCCN(C(=N)N)[N+](=O)[O-])NC1=O`: the “growth inhibition (GI)” value in [2] is given as “Non-Toxic”. In addition, the inhibition entry in data set [7], in data set [8] and in data set [9] was “inactive” in each case.
In the case of `CC(C)C[C@H]1NC(=O)[C@@H](Cc2ccccc2)NC1=O`, in data set [2], the “growth inhibition (GI)” value is reported as “Non-Toxic”. The inhibition entry in data set [7], in data set [8] and in data set [9] was “inactive” throughout.
In the case of `CC(C)C[C@@H]1NC(=O)[C@H](Cc2ccccc2)NC1=O`, in data set [2], the “growth inhibition (GI)” value was “Non-Toxic”. The inhibition entry in [7], in data set [8] and in data set [9] was “inactive” throughout.
`O=C(NCCCC[C@@H]1NC(=O)[C@H](CCCCNC(=O)OCc2ccccc2)NC1=O)OCc1ccccc1`: in [2], the “growth inhibition (GI)” value is “Non-Toxic”. Besides, the inhibition result in data set [7], in data set [8] and in [9] was “inactive” each time.
Take `CC(C)C[C@@H]1NC(=O)[C@H](COCc2ccccc2)NC1=O`: in [2], the “growth inhibition (GI)” value is “Non-Toxic”. The inhibition entry in data set [7], in data set [8] and in data set [9] was “inactive” in each case.
`CCC(C)[C@@H]1NC(=O)[C@H](COCc2ccccc2)NC1=O` (some centres undefined): the “growth inhibition (GI)” value in [2] is reported as “Non-Toxic”. The inhibition result in data set [7], in [8] and in data set [9] was “inactive” in each case.
As to `CC(C)C[C@H]1NC(=O)[C@@H](Cc2ccc(OCc3ccccc3)cc2)NC1=O`, the “growth inhibition (GI)” value in [2] is “Non-Toxic”. In addition, the inhibition result in data set [7], in data set [8] and in data set [9] was “inactive” throughout.
As to `N=C(N)NCCC[C@@H]1NC(=O)[C@H](Cc2ccc(O)cc2)NC1=O`, the “growth inhibition (GI)” value in [2] is reported as “Non-Toxic”. Also, the inhibition result in data set [7], in data set [8] and in data set [9] was “inactive” in each case.
